{
  "source": "paper PMC8693680",
  "about": "(RSC Advances, 2021)",
  "molecular_target": "Bovine serum albumin (BSA) (Bos taurus, UniProt P02769)",
  "sequence (P02769 25-607)": "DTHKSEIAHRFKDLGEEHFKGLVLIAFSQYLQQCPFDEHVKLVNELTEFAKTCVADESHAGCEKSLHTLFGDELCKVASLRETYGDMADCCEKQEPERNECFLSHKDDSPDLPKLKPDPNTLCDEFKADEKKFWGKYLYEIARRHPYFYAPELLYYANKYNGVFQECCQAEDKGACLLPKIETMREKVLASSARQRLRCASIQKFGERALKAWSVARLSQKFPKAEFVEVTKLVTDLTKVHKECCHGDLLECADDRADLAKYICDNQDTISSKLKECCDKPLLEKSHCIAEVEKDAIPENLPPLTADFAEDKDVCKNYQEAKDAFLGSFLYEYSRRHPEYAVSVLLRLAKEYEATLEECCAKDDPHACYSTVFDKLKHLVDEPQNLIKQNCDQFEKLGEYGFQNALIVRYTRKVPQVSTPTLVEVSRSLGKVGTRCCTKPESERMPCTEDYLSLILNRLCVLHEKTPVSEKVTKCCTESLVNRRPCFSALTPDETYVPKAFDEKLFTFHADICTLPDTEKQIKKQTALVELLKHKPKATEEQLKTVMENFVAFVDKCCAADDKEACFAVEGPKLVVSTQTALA",
  "test": "Trp fluorescence quenching",
  "type": "binding",
  "settings": "5 μM BSA, 0-15 μM dye, 10 mM HEPES pH 7.4, 298 K; double-log; n = 0.35",
  "data": [
    {"compound": "c1ccc2c(c1)Nc1ccccc1S2", "note": "[PTZ]", "values": [
      {"measurement": "Binding constant, K′", "result": 6190, "unit": "M⁻¹"}
    ]}
  ]
}
